Holding throughout (type): in vivo
Assay [1] has as its system common lambsquarters (Chenopodium album L.). In words: Test Example 24: pot, soil treatment, metobromuron + trifluralin. The following applies: soil treatment, pot, 21st day after treatment, read-out: Growth inhibition rate of common lambsquarters (%) Measured value. From the text: (§1) When the herbicidal activity in a case where two active ingredients are combined, is larger than the simple sum of the respective herbicidal activities of the two active ingredients (the expected activity), it is called a synergistic effect. The activity expected by the combination of two active ingredients can be calculated as follows (Colby S. R., “Weed”, vol. 15, p. 20-22, 1967). E=α+β−(α×β[…]) where α: growth inhibition rate when treated with x (g/ha) of herbicide X, • β: growth inhibition rate when treated with y (g/ha) of herbicide Y, • E: growth inhibition rate expected when treated with x (g/ha) of herbicide X and y (g/ha) of herbicide Y.
(§2) On the 19th day after treatment, the state of growth of barnyardgrass was visually observed and evaluated in accordance with the following standards. The growth inhibition rate (%) [measured value] and the growth inhibition rate (%) [calculated value] calculated by the Colby's method, are shown in Table 2.
(§3) Growth inhibition rate (%)=inhibition rate) (%) of 0 (equivalent to the non-treated area) to 100 (complete kill)
Soil was put into a 1/300,000 ha pot, and seeds of common lambsquarters (Chenopodium album L.) were sown. On the day after seeding, predetermined amounts of SC containing metobromuron as active ingredient (same as in Test Example 1) and EC containing trifluralin as active ingredient (same as in Test Example 4) were diluted with water corresponding to 1,000 L per hectare and applied for soil treatment.
On the 21st day after treatment, the state of growth of common lambsquarters was visually observed and evaluated in the same manner as in Test Example 1.

Assay [2] relates to common chickweed (Stellaria media L.). In words: Test Example 25: pot, soil treatment, metobromuron + trifluralin. The conditions noted are these: 445 g/ha, soil treatment, pot, 21st day after treatment, read-out: Growth inhibition rate of common chickweed (%) Measured value.
Assay [3] deals with Oriental lady's thumb (Persicaria longiseta). In words: Test Example 7: common bean field, soil treatment, metobromuron + trifluralin. The conditions noted are these: 1335 g/ha, soil treatment, common bean field, 49th day after treatment, read-out: Growth inhibition rate of Oriental lady's thumb (%) Measured value.
Description: as §1, §2
(§4) Growth inhibition rate (%)=inhibition rate) (%) of 0 (equivalent to the non-treated area) to 100 (complete kill) […]
On the 49th day after treatment, the state of growth of Oriental lady's thumb (Persicaria longiseta) which occurred naturally, was visually observed and evaluated in the same manner as in Test Example 1.

Assay [4] relates to barnyardgrass (Echinochloa crus-qalli L.). Briefly: Test Example 4: soybean field, soil treatment, metobromuron + trifluralin. The following applies: 890 g/ha, soil treatment, soybean field, 50th day after treatment, read-out: Growth inhibition rate of barnyardgrass (%) Measured value.
Description: as §1, §2, §4
On the 50th day after treatment, the state of growth of barnyardgrass (Echinochloa crus-qalli L.) which occurred naturally, was visually observed and evaluated in the same manner as in Test Example 1.

Assay [5] relates to black nightshade (Solanum nigrum L.). In words: Test Example 23: pot, soil treatment, metobromuron + fluazifop-P-butyl. The conditions noted are these: 131.25 g/ha; soil treatment, pot; 20th day after treatment.
Description: as §1, §2, §3
Soil was put into a 1/300,000 ha pot, and seeds of black nightshade (Solanum nigrum L.) were sown. […]
On the 20th day after treatment, the state of growth of black nightshade was visually observed and evaluated in the same manner as in Test Example 1.

Assay [6] has as its system barnyardgrass (Echinochloa crus-qalli L.). Briefly: Test Example 5: adzuki bean field, soil treatment, metobromuron + fluazifop-P-butyl. The conditions noted are these: 700 g/ha; soil treatment, adzuki bean field; 39th day after treatment.
Description: as §1, §2, §4
On the 39th day after treatment, the state of growth of barnyardgrass (Echinochloa crus-qalli L.) which occurred naturally, was visually observed and evaluated in the same manner as in Test Example 1.

The text below walks through data of patent publication US9993001B2, “Herbicidal composition” (ISHIHARA SANGYO KAISHA, LTD., priority 2014, dated 2018).

Molecules are shown by their SMILES.

For `CCCN(CCC)c1c([N+](=O)[O-])cc(C(F)(F)F)cc1[N+](=O)[O-]` [Trifluralin, α,α,α-trifluoro-2,6-dinitro-N,N-dipropyl-p-toluidine], in assay [1] (296.7 g/ha), the inhibition at 296.7 g/ha amounted to 20%. The inhibition at 445 g/ha in assay [1] (445 g/ha) stood at 15%; in assay [2], 35%. Also, the inhibition at 667.5 g/ha in assay [1] (667.5 g/ha) stood at 48%. Moreover, in assay [3], the inhibition at 1335 g/ha came to 40%. For the same compound, the inhibition at 890 g/ha in assay [4] worked out at 20%.
For the compound `CCCCOC(=O)[C@@H](C)Oc1ccc(Oc2ccc(C(F)(F)F)cn2)cc1` [Fluazifop-P-butyl, butyl (R)-2-[4-[5-(trifluoromethyl)-2-pyridyloxy]phenoxy] propionate], the “Growth inhibition rate of black nightshade (%) Measured value” in assay [5] is reported as 25%. The “Growth inhibition rate of barnyardgrass (%) Measured value” in assay [6] came out at 55%.

A word on the inhibition: it is how much of the control response was suppressed.
